Data: patent publication US8343983B2, “Substituted pyrazolo-pyrimidine compounds” (ArQule, Inc., priority 2009, dated 2013)
Like-named read-outs stand apart in the source and are kept apart here.

Test system: cancer cells
Assay: MTS assay: inhibition of cell growth (formazan absorbance at 492 nm after 72 hours with test compound)
Type: cell-based
Details: inhibition class
How it was run: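 DMEM with 1% FBS; cells seeded at 3000/well and grown 18 h at 37 °C, then exposed to compound for 72 h and to MTS/PMS for 4 h. IC50 is the concentration giving a 50% absorbance drop; grades are % inhibition bands.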

[1] = Homo sapiens, DLD-1 cells, read-out: DLD-1, MTS 72 hours at 10 uM
[2] = Homo sapiens, KATO III cells, read-out: KATO III, MTS 72 hours at 10 uM
[3] = Homo sapiens, MDA-MB-231 cells, read-out: MDA-MB-231, MTS 72 hours at 10 uM
[4] = Homo sapiens, NCI-H1299 cells, read-out: NCI-H1299, MTS 72 hours at 10 uM
[5] = Homo sapiens, PC-3 cells, read-out: PC-3, MTS 72 hours at 10 uM
[6] = PACA-2 cells, read-out: PACA-2, MTS 72 hours at 10 uM

Structure (SMILES)	inhibition at 10 µM [1]	inhibition at 10 µM [2]	inhibition at 10 µM [3]	inhibition at 10 µM [4]	inhibition at 10 µM [5]	inhibition at 10 µM [6]
COc1ccc(CN2CCCc3n[nH]c4nc(NCCc5c[nH]c6ccc(Cl)cc56)nc2c34)cc1 [Compound 252, N-[2-(5-chloro-1H-indol-3-yl)ethyl]-6-(4-methoxybenzyl)-6,7,8,9-tetrahydro-2H-1,2,3,5,6-pentaazabenzo[cd]azulen-4-amine]	50 to 79%	< 50%	< 50%	< 50%	< 50%	< 50%
OCCN1CCN(c2nc3c4c(n[nH]c4n2)CCN3Cc2ccccc2)CC1 [Compound 75, 2-[4-(6-benzyl-2,6,7,8-tetrahydro-1,2,3,5,6-pentaazaacenaphthylen-4-yl)piperazin-1-yl]ethanol]	< 50%	< 50%	< 50%	< 50%	< 50%	< 50%
c1ccc(CN2CCc3n[nH]c4nc(NCc5ccc6c(c5)CCO6)nc2c34)cc1 [Compound 63, 6-benzyl-N-(2,3-dihydro-1-benzofuran-5-ylmethyl)-2,6,7,8-tetrahydro-1,2,3,5,6-pentaazaacenaphthylen-4-amine]	< 50%	< 50%	< 50%	< 50%	< 50%	< 50%
CCC(C)Nc1nc2c3c(n[nH]c3n1)CCN2Cc1ccccc1 (stereo not drawn) [Compound 52, 6-benzyl-N-sec-butyl-2,6,7,8-tetrahydro-1,2,3,5,6-pentaazaacenaphthylen-4-amine]	> 79%	> 79%	> 79%	50 to 79%	< 50%	50 to 79%
COc1ccc(CN2CCCc3n[nH]c4nc(N5CCOCC5)nc2c34)cc1 [Compound 242, 6-(4-methoxybenzyl)-4-morpholin-4-yl-6,7,8,9-tetrahydro-2H-1,2,3,5,6-pentaazabenzo[cd]azulene]	> 79%	< 50%	< 50%	< 50%	< 50%	50 to 79%
c1ccc(CN2CCc3n[nH]c4nc(NCc5cccc6ccccc56)nc2c34)cc1 [Compound 7, 6-benzyl-N-(1-naphthylmethyl)-2,6,7,8-tetrahydro-1,2,3,5,6-pentaazaacenaphthylen-4-amine]	< 50%	> 79%	> 79%	< 50%	> 79%	< 50%
Fc1ccc(CCNc2nc3c4c(n[nH]c4n2)CCN3c2ccccc2)cc1 [Compound 221, N-[2-(4-fluorophenyl)ethyl]-6-phenyl-2,6,7,8-tetrahydro-1,2,3,5,6-pentaazaacenaphthylen-4-amine]	< 50%	< 50%	< 50%	< 50%	< 50%	< 50%
c1ccc(CN2CCc3n[nH]c4nc(NCc5cccc(-c6ccccc6)c5)nc2c34)cc1 [Compound 71, 6-benzyl-N-(biphenyl-3-ylmethyl)-2,6,7,8-tetrahydro-1,2,3,5,6-pentaazaacenaphthylen-4-amine]	50 to 79%	50 to 79%	50 to 79%	50 to 79%	< 50%	50 to 79%
O=C(NCc1ccccc1)C1CN(Cc2ccccc2)c2nc(NCc3ccc(Oc4ccccc4)cc3)nc3[nH]nc1c23 (stereo not drawn) [Compound 230, N,6-dibenzyl-4-[(4-phenoxybenzyl)amino]-2,6,7,8-tetrahydro-1,2,3,5,6-pentaazaacenaphthylene-8-carboxamide]	> 79%	50 to 79%	< 50%	50 to 79%	50 to 79%	< 50%
O[C@H](CNc1nc2c3c(n[nH]c3n1)CCN2Cc1ccccc1)c1ccccc1 [Compound 72, (1S)-2-[(6-benzyl-2,6,7,8-tetrahydro-1,2,3,5,6-pentaazaacenaphthylen-4-yl)amino]-1-phenylethanol]	< 50%	< 50%	< 50%	< 50%	< 50%	< 50%
COCC(C)Nc1nc2c3c(n[nH]c3n1)CCN2Cc1ccccc1 (stereo not drawn) [Compound 78, 6-benzyl-N-(2-methoxy-1-methylethyl)-2,6,7,8-tetrahydro-1,2,3,5,6-pentaazaacenaphthylen-4-amine]	< 50%	< 50%	> 79%	< 50%	> 79%	< 50%
Fc1cccc(CCNc2nc3c4c(n[nH]c4n2)CCN3Cc2ccccc2)c1 [Compound 94, 6-benzyl-N-[2-(3-fluorophenyl)ethyl]-2,6,7,8-tetrahydro-1,2,3,5,6-pentaazaacenaphthylen-4-amine]	< 50%	< 50%	< 50%	< 50%	< 50%	< 50%
c1ccc(CCNc2nc3c4c(n[nH]c4n2)CCN3)cc1 [Compound 128, N-(2-phenylethyl)-2,6,7,8-tetrahydro-1,2,3,5,6-pentaazaacenaphthylen-4-amine]	> 79%	> 79%	> 79%	> 79%	> 79%	> 79%
COc1ccc(CN2CCc3n[nH]c4nc(NC5Cc6ccccc6C5)nc2c34)cc1 [Compound 106, N-(2,3-dihydro-1H-inden-2-yl)-6-(4-methoxybenzyl)-2,6,7,8-tetrahydro-1,2,3,5,6-pentaazaacenaphthylen-4-amine]	> 79%	> 79%	< 50%	50 to 79%	< 50%	50 to 79%
CCOC(=O)C1CN(Cc2ccccc2)c2nc(SC)nc3[nH]nc1c23 (stereo not drawn) [Compound 222, ethyl 6-benzyl-4-(methylsulfanyl)-2,6,7,8-tetrahydro-1,2,3,5,6-pentaazaacenaphthylene-8-carboxylate]	< 50%	< 50%	< 50%	< 50%	< 50%	< 50%
c1ccc(CN2CCN(CCNc3nc4c5c(n[nH]c5n3)CCN4Cc3ccccc3)CC2)cc1 [Compound 33, 6-benzyl-N-[2-(4-benzylpiperazin-1-yl)ethyl]-2,6,7,8-tetrahydro-1,2,3,5,6-pentaazaacenaphthylen-4-amine]	< 50%	< 50%	< 50%	< 50%	< 50%	< 50%
c1ccc(CN2CCc3n[nH]c4nc(NCc5ccc6c(c5)OCO6)nc2c34)cc1 [Compound 31, N-(1,3-benzodioxol-5-ylmethyl)-6-benzyl-2,6,7,8-tetrahydro-1,2,3,5,6-pentaazaacenaphthylen-4-amine]	< 50%	< 50%	< 50%	< 50%	< 50%	< 50%
c1ccc(CN2CCc3n[nH]c4nc(NCCc5ccccn5)nc2c34)cc1 [Compound 65, 6-benzyl-N-(2-pyridin-2-ylethyl)-2,6,7,8-tetrahydro-1,2,3,5,6-pentaazaacenaphthylen-4-amine]	< 50%	< 50%	< 50%	< 50%	< 50%	< 50%
CN1CCC(Nc2nc3c4c(n[nH]c4n2)CCN3c2ccccc2)CC1 [Compound 219, N-(1-methylpiperidin-4-yl)-6-phenyl-2,6,7,8-tetrahydro-1,2,3,5,6-pentaazaacenaphthylen-4-amine]	> 79%	> 79%	> 79%	50 to 79%	> 79%	> 79%
COc1cc(CCNc2nc3c4c(n[nH]c4n2)CCN3Cc2ccccc2)cc(OC)c1 [Compound 11, 6-benzyl-N-[2-(3,5-dimethoxyphenyl)ethyl]-2,6,7,8-tetrahydro-1,2,3,5,6-pentaazaacenaphthylen-4-amine]	50 to 79%	> 79%	< 50%	> 79%	< 50%	50 to 79%
O=C(CN1CCN(c2nc3c4c(n[nH]c4n2)CCN3Cc2ccccc2)CC1)N1CCCC1 [Compound 83, 6-benzyl-4-[4-(2-oxo-2-pyrrolidin-1-ylethyl)piperazin-1-yl]-2,6,7,8-tetrahydro-1,2,3,5,6-pentaazaacenaphthylene]	< 50%	< 50%	< 50%	< 50%	< 50%	< 50%
CN1CCC(Nc2nc3c4c(n[nH]c4n2)CCN3)CC1 [Compound 126, N-(1-methylpiperidin-4-yl)-2,6,7,8-tetrahydro-1,2,3,5,6-pentaazaacenaphthylen-4-amine]	< 50%	< 50%	< 50%	< 50%	< 50%	< 50%
